# Several values for one entry are separate records, joined by “and”; a condition that tells them apart may be missing. Identical values can stand only once. Like-named read-outs stand apart in the source and are kept apart here. Marks after values point to notes of the source that are not given here.
# What was measured:
# CYP3A4 = tested on: CYP3A4; design: method as in Xiao et al., 2016; settings: human liver microsomes, human recombinant CYPs; ref Xiao et al., 2016; cited from earlier work
# Sprague Dawley (SD) rats = settings: cited from earlier work
# beagle dogs = settings: cited from earlier work
# [1] = Single-dose trial, cumulative urine excretion; type: in vivo, human; settings: fasting, urine 0–48 h
# Experimental: Single-dose pharmacokinetics: In the 25 and 50 mg dose groups, serial blood samples were collected at pre-dose (t = 0) and at 0.25, 0.5, 1, 1.5, 2, 2.5, 3, 3.5, 4, 5, 6, 8, 12, 24, 36, and 48 h post-dose. From the 100 to 800 mg dose groups, blood samples were additionally collected at 72 and 96 h post-dose. Plasma was separated from whole blood by refrigerated centrifugation (3,000 rpm, 10 min), within 1 h after sampling, transferred to labeled storage tubes, and stored at −70°C prior to workup and analysis. Urine samples were collected at different time periods: 0–2, 2–4, 4–6, 6–8, 8–10, 10–12, 12–24, and 24–48 h post-dose and the volume was measured immediately after collection from each subject. We preserved 8 ml specimens into 10 ml centrifuge tubes and stored at −70°C for PK assessment.
# The processing method of the urine samples was similar to the method used for the plasma samples. For CK, the only difference was in the mobile phase (acetonitrile: 10 mM aqueous ammonium acetate = 50:50, V/V, for plasma samples; acetonitrile: 20 mM aqueous ammonium acetate = 60:40, V/V, for urine samples; acetonitrile, Merck KGaA, Darmstadt, Germany; ammonium acetate, CNW technologies GmbH, Duesseldorf, Germany). As for 20(S)-PPD, neither the IS nor the mobile phase were the same (IS: coumarin for plasma samples and finasteride for urine samples; mobile phase was acetonitrile: 10 mM aqueous ammonium acetate = 50: 50, V/V, for plasma samples, and acetonitrile: 0.1% formic acid aqueous solution = 50: 50, V/V, for urine samples). The calibration curve range for CK was linear from 1.00 to 1002.0 ng·ml^−1 with a correlation coefficient equal to 0.9984, and from 0.15 to 54.30 ng·ml^−1 with a correlation coefficient equal to 0.9978 for 20(S)-PPD. Three levels of QC samples (2.00, 50.10, or 801.60 ng.ml^−1 CK) were prepared in urine for testing accuracy and coefficient of variations (CVs), and the values were 94–103% and 1.06–6.54%, respectively.
# Experimental observations provided the plasma CK and 20(S)-PPD concentrations vs. the time data after single-dose administration, including maximum plasma concentration (Cmax) and the time to maximum plasm concentration (Tmax). The area under the curve (AUC) from time zero to the last time point (AUClast) and the AUC extrapolated to infinity (AUCinf) were calculated using the linear trapezoidal rule. The slope (elimination rate constant, K) of the terminal phase of the plasma concentration-time profile was determined, using a weighting factor of 1, by the method of least squares (log-linear regression of at least three data points). The t1/2 was estimated as (ln2)/K. The apparent plasma clearance of the drug after oral administration (CL/F) was expressed as a function of bioavailability (F) and calculated as the dose divided by AUCinf, assuming that the complete systemic bioavailability F = 1. The apparent volume of distribution (V/F) was equal to (CL/F)/K. The mean residence time (MRT) was calculated as the area under the first moments curve (AUMC) divided by AUC. The dose-normalized PK parameters e.g., Cmax/D and AUClast/D, were obtained by dividing each PK result by the administered dose. The cumulative excretion rate was calculated as the amount of unchanged drug in the urine over a time interval divided by the dose and was expressed as thousand points (‰).
# [2] = Phase 0 cross-over trial, sex differences in pharmacokinetics; type: in vivo, human; settings: phase 0 trial; for half-life / Tmax: human, plasma, oral; for Tmax: read-out: Tmax, median (range); for Cmax/D, dose-normalized Cmax: in ng·ml⁻¹·mg⁻¹
# Experimental: Cmax/D, dose-normalized Cmax value; Tmax, time to maximum plasma concentration; t1/2, terminal half-life; AUClast/D, dose-normalized AUClast value; AUCinf/D, dose-normalized AUCinf value; All values are presented as mean ± SD, except for Tmax, which is expressed as median (range). SD, standard deviation. PK parameters were compared between male and female by independent-sample t-test. A non-parametric test was performed on the Tmax and t1/2. * Compared with Male, p < 0.05. These were the results of phase 0 trial, which was a cross-over clinical trial and included 12 males and 12 females.
compound,measurement,setting,value
"CC(C)=CCC[C@](C)(OC1O[C@H](CO)[C@@H](O)[C@H](O)[C@H]1O)[C@H]1CC[C@]2(C)[C@@H]1[C@H](O)C[C@@H]1[C@@]3(C)CC[C@H](O)C(C)(C)[C@@H]3CC[C@]12C (stereo partly drawn) [CK, 20-O-beta-D-glucopyranosyl-20(S)-protopanaxadiol]",inhibition of CYP3A4,CYP3A4,moderate inhibitor
same,substrate of CYP3A4,CYP3A4,substrate
same,dose at which diarrhea symptom occurred,"Sprague Dawley (SD) rats; long-term toxicity test, Sprague Dawley (SD) rats",150 mg/kg
same,No observed adverse effect level (NOAEL),Sprague Dawley (SD) rats; rats,25.0 mg/kg
same,No observed adverse effect level (NOAEL),beagle dogs,7.5 mg/kg
same,dose at which diarrhea symptom occurred,beagle dogs; long-term toxicity test,75 mg/kg
same,"Ae, accumulative urine excretion rate",[1]; 25 mg oral,0.41 ± 0.29 ‰
same,"Ae, accumulative urine excretion rate",[1]; 50 mg oral,0.46 ‰ and 0.46 ± 0.34 ‰
same,"Ae, accumulative urine excretion rate",[1]; 100 mg oral,0.25 ± 0.13 ‰
same,"Ae, accumulative urine excretion rate",[1]; 200 mg oral,0.27 ± 0.15 ‰
same,"Ae, accumulative urine excretion rate",[1]; 400 mg oral,0.19 ± 0.13 ‰
same,"Ae, accumulative urine excretion rate",[1]; 600 mg oral,0.10 ‰ and 0.10 ± 0.08 ‰
same,"Ae, accumulative urine excretion rate",[1]; 800 mg oral,0.10 ‰ and 0.10 ± 0.04 ‰
same,half-life,[2]; Female (n = 12),6.7 ± 1.2 h
same,Tmax,[2]; Female (n = 12),2.8 h
same,half-life,[2]; Male (n = 12),6.1 ± 1.1 h
same,Tmax,[2]; Male (n = 12),3.3 h
same,"AUCinf/D, dose-normalized AUCinf",[2]; Female (n = 12),2016.33 ± 1124.90*
same,"AUClast/D, dose-normalized AUClast",[2]; Female (n = 12),1984.33 ± 1809.10*
same,"Cmax/D, dose-normalized Cmax",[2]; Female (n = 12),24.87 ± 8.23*
same,"AUClast/D, dose-normalized AUClast",[2]; Male (n = 12),387.86 ± 174.14
same,"Cmax/D, dose-normalized Cmax",[2]; Male (n = 12),16.44 ± 2.82

# From article PMC5769417, “Single- and Multiple-Dose Trials to Determine the Pharmacokinetics, Safety, Tolerability, and Sex Effect of Oral Ginsenoside Compound K in Healthy Chinese Volunteers” (Frontiers in Pharmacology, 2018)
